Active and inactive are the calls of the source. Rule for the calls: active = viability on the fitted dose curve at most 10% of control; inactive = the rest.
Test system: SYO-1 tumor spheroids, viability % test/control
Assay: Anticancer human tumor SYO-1 cell line growth inhibition;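 note: spheroids exposed to agents for 7 days before viability read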;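 for viability, T/C: 100% = DMSO vehicle control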
Conditions: spheroids with HUVEC and MSC; for IC50: curve of first compound; for viability, T/C: stronger effect = lower value
Summary of the method: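 Complex tumor spheroids combined malignant cells with endothelial cells and mesenchymal stem cells. DNA-damaging drugs and DNA repair inhibitors were tested alone and in combination, at half-log dilutions down from clinical Cmax (top 10 microM if Cmax unknown), 0.25% DMSO final.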

[1] = second compound 30 pM, first compound 0.00949 µM
[2] = second compound 30 pM, first compound 0.03 µM
[3] = second compound 30 pM, first compound 0.0949 µM
[4] = second compound 30 pM, first compound 0.3 µM
[5] = second compound 30 pM, first compound 0.949 µM
[6] = second compound 30 pM, first compound 3 µM
[7] = second compound 94.9 pM, first compound 0.00949 µM
[8] = second compound 94.9 pM, first compound 0.03 µM
[9] = second compound 94.9 pM, first compound 0.0949 µM
[10] = second compound 94.9 pM, first compound 0.3 µM
[11] = second compound 94.9 pM, first compound 0.949 µM
[12] = second compound 94.9 pM, first compound 3 µM
[13] = second compound 0.0003 µM, first compound 0.00949 µM
[14] = second compound 0.0003 µM, first compound 0.03 µM
[15] = second compound 0.0003 µM, first compound 0.0949 µM
[16] = second compound 0.0003 µM, first compound 0.3 µM
[17] = second compound 0.0003 µM, first compound 0.949 µM
[18] = second compound 0.0003 µM, first compound 3 µM
[19] = second compound 0.000949 µM, first compound 0.00949 µM
[20] = second compound 0.000949 µM, first compound 0.03 µM
[21] = second compound 0.000949 µM, first compound 0.0949 µM
[22] = second compound 0.000949 µM, first compound 0.3 µM
[23] = second compound 0.000949 µM, first compound 0.949 µM
[24] = second compound 0.000949 µM, first compound 3 µM
[25] = second compound 0.003 µM, first compound 0.00949 µM
[26] = second compound 0.003 µM, first compound 0.03 µM
[27] = second compound 0.003 µM, first compound 0.0949 µM
[28] = second compound 0.003 µM, first compound 0.3 µM
[29] = second compound 0.003 µM, first compound 0.949 µM
[30] = second compound 0.003 µM, first compound 3 µM

Compound | IC50 (second compound 30 pM) | IC50 (second compound 94.9 pM) | IC50 (second compound 0.0003 µM) | IC50 (second compound 0.000949 µM) | IC50 (second compound 0.003 µM) | viability, T/C [3] | viability, T/C [4] | viability, T/C [5] | viability, T/C [6] | viability, T/C [9] | viability, T/C [10] | viability, T/C [11] | viability, T/C [12] | viability, T/C [15] | viability, T/C [16] | viability, T/C [17] | viability, T/C [18] | viability, T/C [21] | viability, T/C [22] | viability, T/C [23] | other results
CNCc1ccc(-c2cc(-c3nc(-c4ccc(S(=O)(=O)C(C)C)cc4)cnc3N)on2)cc1 + COc1cc2c(cc1O)CCNC21CSC2c3c(OC(C)=O)c(C)c4c(c3C(COC1=O)N1C(O)C3Cc5cc(C)c(OC)c(O)c5C(C21)N3C)OCO4 | 0.134 µM | 0.0491 µM | < 0.00949 µM | < 0.00949 µM | < 0.00949 µM | 70.5% | 2.18% | 0.23% | 0.08% | 4.65% | 1.24% | 0.12% | 0.07% | 2.02% | 0.82% | 0.12% | 0.09% | 1.43% | 0.42% | 0.09% | viability, T/C [1]: 100%; viability, T/C [2]: 94.2%; viability, T/C [7]: 98.6%; viability, T/C [8]: 84%; viability, T/C [13]: 11.1%; viability, T/C [14]: 3.94%; viability, T/C [19]: 1.37%; viability, T/C [20]: 1.54%; viability, T/C [24]: 0.1%; viability, T/C [25]: 0.12%; viability, T/C [26]: 0.12%; viability, T/C [27]: 0.1%; viability, T/C [28]: 0.11%; viability, T/C [29]: 0.19%; viability, T/C [30]: 0.18%
Cc1sc2c(c1C)C(c1ccc(Cl)cc1)=NC(CC(=O)Nc1ccc(O)cc1)c1nnc(C)n1-2 (stereo not given) + COc1cc2c(cc1O)CCNC21CSC2c3c(OC(C)=O)c(C)c4c(c3C(COC1=O)N1C(O)C3Cc5cc(C)c(OC)c(O)c5C(C21)N3C)OCO4 | 0.0529 µM | 0.0432 µM | < 0.00949 µM | < 0.00949 µM | < 0.00949 µM | 12.1% | 0.72% | 0.4% | 0.28% | 8.96% | 0.68% | 0.34% | 0.28% | 0.68% | 0.58% | 0.32% | 6.38% | 0.51% | 0.24% | 0.06% | viability, T/C [1]: 89%; viability, T/C [2]: 86.8%; viability, T/C [7]: 86.1%; viability, T/C [8]: 69%; viability, T/C [13]: 6.25%; viability, T/C [14]: 2.72%; outcome [19]: active; viability, T/C [20]: 0.65%; viability, T/C [24]: 0.12%; viability, T/C [25]: 0.08%; viability, T/C [26]: 0.1%; viability, T/C [27]: 0.09%; viability, T/C [28]: 0.1%; viability, T/C [29]: 0.09%; viability, T/C [30]: 0.21%
Cn1ncnc1[C@H]1c2n[nH]c(=O)c3cc(F)cc(c23)N[C@@H]1c1ccc(F)cc1 + COc1cc2c(cc1O)CCNC21CSC2c3c(OC(C)=O)c(C)c4c(c3C(COC1=O)N1C(O)C3Cc5cc(C)c(OC)c(O)c5C(C21)N3C)OCO4 | < 0.00949 µM | < 0.00949 µM | < 0.00949 µM | < 0.00949 µM | < 0.00949 µM | 3.42% | 2.17% | 1.14% | 1.2% | 2.32% | 1.61% | 1.11% | 1.06% | 1.38% | 1.22% | 1.37% | 0.93% | 0.78% | 0.83% | 0.68% | viability, T/C [1]: 40.6%; viability, T/C [2]: 8.47%; viability, T/C [7]: 9.24%; viability, T/C [8]: 3.72%; viability, T/C [13]: 1.89%; viability, T/C [14]: 1.72%; viability, T/C [19]: 0.99%; viability, T/C [20]: 0.87%; viability, T/C [24]: 0.57%; viability, T/C [25]: 0.13%; viability, T/C [26]: 0.14%; viability, T/C [27]: 0.13%; viability, T/C [28]: 0.14%; viability, T/C [29]: 0.52%; viability, T/C [30]: 0.24%
O=C(c1cc(Cc2n[nH]c(=O)c3ccccc23)ccc1F)N1CCN(C(=O)C2CC2)CC1 + COc1cc2c(cc1O)CCNC21CSC2c3c(OC(C)=O)c(C)c4c(c3C(COC1=O)N1C(O)C3Cc5cc(C)c(OC)c(O)c5C(C21)N3C)OCO4 | 1.59 µM | 0.575 µM | < 0.0949 µM | < 0.0949 µM | < 0.0949 µM | 101% | 92.3% | 84.7% | 7.77% | 85.9% | 79.7% | 27.2% | 4.14% | 6.93% | 3.52% | 2.62% | 1.83% | 0.91% | 0.86% | 0.95% | viability, T/C (second compound 30 pM, first compound 9.49 µM): 2.16%; viability, T/C (second compound 30 pM, first compound 30 µM): 1.89%; viability, T/C (second compound 94.9 pM, first compound 9.49 µM): 1.87%; viability, T/C (second compound 94.9 pM, first compound 30 µM): 1.22%; viability, T/C (second compound 0.0003 µM, first compound 9.49 µM): 1.18%; viability, T/C (second compound 0.0003 µM, first compound 30 µM): 1.45%; viability, T/C [24]: 0.68%; viability, T/C (second compound 0.000949 µM, first compound 9.49 µM): 0.61%; viability, T/C (second compound 0.000949 µM, first compound 30 µM): 0.39%; viability, T/C [27]: 3.53%; viability, T/C [28]: 0.25%; viability, T/C [29]: 0.21%; viability, T/C [30]: 0.22%; viability, T/C (second compound 0.003 µM, first compound 9.49 µM): 0.24%; viability, T/C (second compound 0.003 µM, first compound 30 µM): 0.31%

From PubChem BioAssay AID1845219 (Molecular Pharmacology Branch, DTP, NCI, 2023)
